Patent EP0868914B1, “USE OF A FLAVONOID-CONTAINING EXTRACT OF THE PLANT EUPHORBIA PROSTRATA IN THE MANUFACTURE OF A MEDICAMENT FOR THE TREATMENT OF AN ANORECTIC OR COLONIC DISEASE” (PANACEA BIOTEC LIMITED, priority 1997, dated 1998)
Marks after values point to notes of the source that are not given here.

Experiments:
[1] = tested on: croton oil-induced oedema in mice ears; assay: Croton oil ear test (oedema), topical; conditions: for Activity Ratio on Molar basis: Indomethacin = 1; for ID50 / ID50 (column head printed: Activity Ratio): croton oil ear test in mice, Italian institute data
[2] = tested on: granulocyte infiltration (MPO activity); assay: Granulocyte infiltration (MPO activity) in the croton oil ear test; format: in vivo, mice; conditions: One unit = 1 nMol/min. of tetraguaiacol formed at 25°C
[3] = tested on: Carrageenan-induced Mice Paw Oedema; assay: Carrageenan-induced paw oedema in mice, topical application; format: in vivo; conditions: topical Indomethacin
Protocol: The duration of action of topical preparation was determined by studying the effects of different concentrations of the drug on oedema over a period of 8 hr. As evident from the Table 3, the peak inhibition was observed after 3-4 hours of carrageenan injection begining at 2 hr for the extract at lower concentrations (0.5-2.0%) and 1 hr. at 4 % concentration.

[4] = tested on: Carrageenan-induced Pedal Oedema; assay: Carrageenan-induced pedal oedema in rats (oral extract, intraperitoneal indomethacin); format: in vivo; conditions: for Oedema + SEM (%): intraperitoneal
[5] = 1.26µMol, 6 hours after treatment
[6] = 1.26µMol, 18 hours after treatment
[7] = 1.26µMol, 30 hours after treatment

## C[C@@H]1O[C@@H](OC[C@H]2O[C@@H](Oc3c(-c4ccc(O)c(O)c4)oc4cc(O)cc(O)c4c3=O)[C@H](O)[C@@H](O)[C@@H]2O)[C@H](O)[C@H](O)[C@H]1O [Rutin]
[1]
  Activity Ratio on Molar basis: 0.28
  ID50: 282 µg/ear
  ID50 (column head printed: Activity Ratio): 0.462 µmol/ear

## C[C@]12CCC(=O)C=C1CC[C@@H]1[C@@H]2[C@@H](O)C[C@@]2(C)[C@H]1CC[C@]2(O)C(=O)CO [Hydrocortisone]
[1]; 0.41 µMol, 6 hours after treatment
  Effect on Oedema Development: 0.5 ± 0.2 mg
[1]; 0.41 µMol, 18 hours after treatment
  Effect on Oedema Development: 0.7 ± 0.1 mg
[1]; 0.41 µMol, 30 hours after treatment
  Effect on Oedema Development: 0.7 ± 0.1 mg
[1]; 18 hours after treatment
  antiinflammatory activity (oedema) in words: maintain their effect to a certain extent
[1]
  Activity Ratio on Molar basis: 14.00
  ID50: 3.3 µg/ear
  ID50 (column head printed: Activity Ratio): 0.009 µmol/ear
[2]; 0.41µMol, 6 hours after treatment
  Effect on granulocyte infiltration (MPO activity): 0.0±0.2 unit
[2]; 0.41µMol, 18 hours after treatment
  Effect on granulocyte infiltration (MPO activity): 6.9±2.1 unit
[2]; 0.41µMol, 30 hours after treatment
  Effect on granulocyte infiltration (MPO activity): 8.2±2.4 unit

## COc1ccc2c(c1)c(CC(=O)O)c(C)n2C(=O)c1ccc(Cl)cc1 [Indomethacin]
[1]; [5]
  Effect on Oedema Development: 0.0 ± 0.1 mg
[1]; [6]
  Effect on Oedema Development: 3.1 ± 0.4 mg
[1]; [7]
  Effect on Oedema Development: 0.5 ± 0.1 mg
[1]; 18 hours after treatment
  antiinflammatory activity (oedema) in words: lose their antiinflammatory activity
[1]
  Activity Ratio on Molar basis: 1.00
  ID50: 46.1 µg/ear
  ID50 (column head printed: Activity Ratio): 0.126 µmol/ear
[2]; [5]
  Effect on granulocyte infiltration (MPO activity): 0.0±0.1 unit
[2]; [6]
  Effect on granulocyte infiltration (MPO activity): 10.0±1.6 unit
[2]; [7]
  Effect on granulocyte infiltration (MPO activity): 6.8±3.4 unit
[3]; Dose 1.00 %, +60 m
  inhibition of Carrageenan-induced Mice Paw Oedema: 18.2** %
[3]; Dose 1.00 %, +120 m
  inhibition of Carrageenan-induced Mice Paw Oedema: 24.0** %
[3]; Dose 1.00 %, +180 m
  inhibition of Carrageenan-induced Mice Paw Oedema: 29.0** %
[3]; Dose 1.00 %, +240 m
  inhibition of Carrageenan-induced Mice Paw Oedema: 21.2** %
[3]; Dose 1.00 %, +360 m
  inhibition of Carrageenan-induced Mice Paw Oedema: 9.6** %
[3]; Dose 1.00 %, +480 m
  inhibition of Carrageenan-induced Mice Paw Oedema: 4.6%
[3]; Dose 2.00 %, +60 m
  inhibition of Carrageenan-induced Mice Paw Oedema: 24.2* %
[3]; Dose 2.00 %, +120 m
  inhibition of Carrageenan-induced Mice Paw Oedema: 26.0* %
[3]; Dose 2.00 %, +180 m
  inhibition of Carrageenan-induced Mice Paw Oedema: 41.9*** %
[3]; Dose 2.00 %, +180 m, listed as indomethacin
  inhibition of Carrageenan-induced Mice Paw Oedema: 41.9%
[3]; Dose 2.00 %, +240 m
  inhibition of Carrageenan-induced Mice Paw Oedema: 36.4* %
[3]; Dose 2.00 %, +360 m
  inhibition of Carrageenan-induced Mice Paw Oedema: 11.5* %
[3]; Dose 2.00 %, +480 m
  inhibition of Carrageenan-induced Mice Paw Oedema: 10.6%
[4]; 1mg/kg, i.p.
  inhibition of oedema: 74%
[4]; 0.5 mg/Kg, +30 min
  Oedema + SEM (%): 13.6±4.0%
[4]; 0.5 mg/Kg, +60 min
  Oedema + SEM (%): 18.9±4.0%
[4]; 0.5 mg/Kg, +120 min
  Oedema + SEM (%): 28.8±4.2%
[4]; 1.0 mg/Kg, +30 min
  Oedema + SEM (%): 9.3±2.3%
[4]; 1.0 mg/Kg, +60 min
  Oedema + SEM (%): 12.3±2.2%
[4]; 1.0 mg/Kg, +120 min
  Oedema + SEM (%): 16.4±1.6%
[4]; 2.0 mg/Kg, +30 min
  Oedema + SEM (%): 8.2±1.5%
[4]; 2.0 mg/Kg, +60 min
  Oedema + SEM (%): 12.8±1.8%

## O=c1c(O)c(-c2ccc(O)c(O)c2)oc2cc(O)cc(O)c12 [Quercetin]
[1]
  Activity Ratio on Molar basis: 0.65
  ID50: 60.3 µg/ear
  ID50 (column head printed: Activity Ratio): 0.200 µmol/ear

## O=c1cc(-c2ccc(O)cc2)oc2cc(O[C@@H]3O[C@H](CO)[C@@H](O)[C@H](O)[C@H]3O)cc(O)c12 [Apigenin-7-glucoside]
[1]
  Activity Ratio on Molar basis: 0.32
  ID50: 175 µg/ear
  ID50 (column head printed: Activity Ratio): 0.404 µmol/ear
